Experiments:
[1] = test system: azoxymethane (AOM)/dextran sodium sulfate (DSS) mouse model of colorectal cancer; experiment: AOM/DSS mouse model of colorectal cancer, tumor number; format: in vivo; details: emodin 40 mg/Kg via gavage three days a week for 10 weeks; vehicle approximately 7 tumors
Experimental: Effects of dietary emodin on tumorigenesis were examined in an azoxymethane (AOM)/dextran sodium sulfate (DSS) mouse model of colorectal cancer. Colorectal cancer was developed in mice according to known methods. Briefly, mice received a single injection of AOM (10 mg/Kg) followed by 2 cycles of DSS (2% in the water for 1 week followed by 2 weeks of plain water) as previously described (see, e.g., Tanaka T. Colorectal carcinogenesis: Review of human and experimental animal studies. J Carcinog 2009; 8:5; Enos R T, Velazquez K T, McClellan J L, et al. High-fat diets rich in saturated fat protect against azoxymethane/dextran sulfate sodium-induced colon cancer. American journal of physiology Gastrointestinal and liver physiology 2016; 310:G906-19).
The mice were administered either emodin or vehicle treatment (n=12) via gavage at a dose of 40 mg/Kg three days a week for the duration of the AOM/DSS protocol (10 weeks).

MC38 tumors = experiment: MC38 mouse model of adenocarcinoma, tumor weight; format: in vivo; details: emodin 40 mg/Kg via gavage three days a week for 4 weeks; vehicle approximately 1,200 mg
Experimental: The MC38 mouse model of adenocarcinoma was used. Mice (n=4/group) were administered emodin or vehicle treatment via gavage at a dose of 40 mg/Kg three days a week for 4 weeks. Following the 4-week treatment period tumors in the vehicle treated group weighed approximately 1,200 mg, whereas those in the emodin treated group weighed approximately 400 mg.

[2] = test system: Apc^min/+ model of intestinal tumorigenesis; experiment: Apc^min/+ model of intestinal tumorigenesis, polyp number; format: in vivo, mouse; details: emodin 40 mg/Kg via gavage three days a week for 12 weeks; vehicle approximately 75 polyps
Experimental: The Apc^min/+ model of intestinal tumorigenesis was utilized to test anti-tumor effects of emodin. Mice were administered emodin or vehicle treatment (n=7/group) via gavage at a dose of 40 mg/Kg three days a week for 12 weeks. Results are illustrated in FIG. 2. As indicated, the vehicle treated group had approximately 75 polyps per mouse, whereas emodin treated mice had less than 40 polyps per mouse.

[3] = test system: pro-tumor markers (Hif1a, IL-10, IL-6 and MCP-1); experiment: Pro-tumor marker expression in MC38 tumors; format: in vivo, mouse; details: emodin 40 mg/Kg
Experimental: To test the effects of emodin on TAMs in colorectal cancer, macrophage infiltration into MC38 colon tumors following control or emodin (40 mg/Kg) treatment (3 times a week for 4 weeks) was examined using flow cytometry. Tumors of similar sizes were selected so that emodin effects could be determined independent of any changes in tumor size. […] The effects of emodin on select pro-tumor markers (Hif1a, IL-10, IL-6 and MCP-1) in a tumor was also examined.

[4] = test system: MCP-1, TNFα, and NOS2 expression; experiment: 5FU-induced colon inflammation, inflammatory gene expression by qPCR in a non-disease model; format: in vivo, C57BL/6 mice; details: 5FU 3 cycles (40 then 20 mg/Kg) plus emodin 40 mg/Kg 3 times per week; vs 5FU plus vehicle
Experimental: FIG. 6 illustrates the inhibition of 5FU-induced colon inflammation. 5FU treated mice were administered emodin (40 mg/kg 3×wk) or vehicle treatment (n=5). A non-disease phosphate buffer saline (PBS) group was used as a control (n=5). Following 5FU treatment inflammatory mediators were analyzed in the colon via q PCR. *p<0.05.
The effects of dietary emodin on colon inflammation following 5FU administration were examined in a non-disease model. C57BL/6 mice were assigned to either emodin or control treatment (n=5). […] 5FU or PBS was administered daily for 5-days followed by a 9-day recovery (×3 cycles). The dose of 5FU was 40 mg/Kg in cycle 1 and 20 mg/Kg in cycles 2 and 3. Emodin (40 mg/Kg) was administered 3 times per week for the duration of the 5FU treatment.
Given the role of inflammation in chemotherapy-induced toxicity, an analysis of inflammatory genes from the intestines was performed.

[5] = test system: F4/80+ cells (macrophages) in MC38 colon tumors; experiment: Macrophage infiltration into MC38 colon tumors by flow cytometry; format: in vivo, mouse; details: emodin 40 mg/Kg 3 times a week for 4 weeks, tumors of similar sizes
Experimental: To test the effects of emodin on TAMs in colorectal cancer, macrophage infiltration into MC38 colon tumors following control or emodin (40 mg/Kg) treatment (3 times a week for 4 weeks) was examined using flow cytometry. Tumors of similar sizes were selected so that emodin effects could be determined independent of any changes in tumor size.

5FU toxicity = experiment: Functional measures and survival following 5FU administration in a non-disease model; format: in vivo, C57BL/6 mice
Experimental: Given the positive effects of emodin on inflammation associated with 5FU toxicity, use of emodin was further examined to determine any improvement in quality of life measures with emodin/5FU treatment vs. 5FU treatment alone. The effects of emodin on functional measures and survival following 5FU administration were examined in a non-disease model.
C57BL/6 mice were assigned to either emodin (40 mg/kg 3×per week; n=9) or vehicle treatment (n=10). 5FU was administered at 40 mg/kg in cycle 1 and 20 mg/kg in cycles 2 and 3. Emodin was administered 3 times per week for the duration of the 5FU treatment.
Following the final 5FU cycle, mice underwent a mechanical stimulation test and a run to fatigue.

[6] = following the final 5FU cycle, emodin 40 mg/kg 3x per week

Structure (SMILES): Cc1cc(O)c2c(c1)C(=O)c1cc(O)cc(O)c1C2=O [emodin, Emodin]
- number of tumors following the 10-week AOM/DSS protocol [1]: approximately 5 tumors
- tumor weight (MC38 tumors): approximately 400 mg
- polyps per mouse [2]: less than 40 polyps per mouse
- relative expression of Hif1a in tumor [3]: decrease in relative marker expression
- relative expression of IL-6 in tumor [3]: decrease in relative marker expression
- relative expression of IL-10 in tumor [3]: decrease in relative marker expression
- relative expression of MCP-1 in tumor [3]: decrease in relative marker expression
- MCP-1 expression in colon/intestines after 5FU [4]: decrease
- NOS2 expression in colon/intestines after 5FU [4]: decrease
- TNFα expression in colon/intestines after 5FU [4]: decrease
- F4/80+ cells (macrophages) in colon tumors [5]: significantly reduce
- body weight loss associated with 5FU treatment (5FU toxicity; 3 cycles of 5FU plus emodin 40 mg/kg 3x per week): prevented the body weight loss
- survival of the 5FU regime (5FU toxicity; 3 cycles of 5FU plus emodin 40 mg/kg 3x per week, vehicle group 50%): 100%
- 5FU induced fatigability (run to fatigue) (5FU toxicity; [6]): offset
- 5FU induced sensitivity to pain (mechanical stimulation test) (5FU toxicity; [6]): offset
